SMILES strings stand for the structures.

The test deals with T1, human SCD1 enzyme (Homo sapiens, UniProt O00767).
T1 sequence (O00767 1-359): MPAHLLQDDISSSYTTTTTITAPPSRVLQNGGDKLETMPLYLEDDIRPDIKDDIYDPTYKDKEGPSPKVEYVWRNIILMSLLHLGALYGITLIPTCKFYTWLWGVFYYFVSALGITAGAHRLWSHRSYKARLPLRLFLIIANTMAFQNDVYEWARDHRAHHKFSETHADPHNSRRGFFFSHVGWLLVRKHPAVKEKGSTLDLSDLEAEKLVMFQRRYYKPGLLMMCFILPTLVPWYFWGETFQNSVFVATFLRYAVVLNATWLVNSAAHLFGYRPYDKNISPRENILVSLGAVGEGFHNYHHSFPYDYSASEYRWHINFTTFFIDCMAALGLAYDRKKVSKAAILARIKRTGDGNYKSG
The test can be described thus: Tritiated water release assay (conversion of radiolabeled stearoyl-CoA to oleoyl-CoA). The note with it: 10 μM concentration of test compounds; microsomal SCD1, 3H stearoyl CoA, 37° C. 30 minutes; percent of control reaction; read-out: % Inhibition. It is filed as biochemical. As to the method:
The in-vitro activity of the compounds of the present invention against stearoyl coenzyme desaturase was determined by following conversion of radiolabeled-stearoyl-CoA to oleoyl-CoA using human SCD1 enzyme using a previously published assay procedure with some modifications (Barbara R Talamo and Konrad Bloch, Analytical Biochemistry, 1969, 29, 300-304). This assay protocol is only illustrative and is not meant to limit to the scope of the present invention.
In this assay the microsomal SCD1 enzyme desaturates its substrate, Stearoyl CoA (purchased from American Radiochemicals Ltd.) which is tritiated at C9 and C10 positions. Test compounds were dissolved in dimethylsulfoxide and tested at 10 μM final concentration. Before substrate addition, the test compound or standard reference compound (conjugated linoleic acid at 100 μM final concentration) were pre-incubated in reaction buffer with the enzyme for 10 minutes at 30° C. with shaking. Reaction buffer was prepared as described in literature (Obukowicz et al. JPET, 1998, 287, 157-166) except that the MgCl2, ATP (purchased from Sigma) and CoA (purchased from Sigma) concentrations were changed to 4.9 mM, 7.2 mM and 0.54 mM respectively. The desaturation reaction was initiated by addition of 0.5 μCi of ^3H stearoyl CoA and incubated at 37° C. for 30 minutes with shaking. A control reaction was set without any test compound/reference inhibitor to capture maximum enzymatic activity in the assay. Inhibition of enzyme activity was calculated as a percent of this control reaction giving maximum catalysis and the results are given in Table 5.
Table 5: Tritiated water release assay at 10 μM substrate concentration *Conjugated Linoleic acid was used as a reference standard
Consider `Oc1cccc(C#Cc2ccc(N3CCN(CC4CCCCC4)CC3)nn2)c1` [Example 57, 3-({6-[4-(Cyclohexylmethyl)piperazin-1-yl]pyridazin-3-yl}ethynyl)phenol], for which the inhibition at 10 µM turned out to be 96%. As for `O=C(c1ccccc1C(F)(F)F)N1CCN(c2ccc(C#CC3(O)CCCC3)cn2)CC1` [Example 5, 4-{5-[2-(1-Hydroxycyclopentyl)-1-ethynyl]-2-pyridyl}piperazino-2-trifluoromethyl phenylmethanone], the figure is 19%; as for `O=C(c1ccccc1C(F)(F)F)N1CCN(c2ccc(C#Cc3cccc(O)c3)nn2)CC1` [Example 38, 4-{6-[2-(3-Hydroxyphenyl)-1-ethynyl]-3-pyridazinyl}piperazino-2-trifluoromethyl-phenylmethanone], 99%; as for `Oc1ccc(C#Cc2ccc(N3CCC(Oc4cc(Cl)ccc4Cl)CC3)nn2)cc1` [Example 93, 4-[{6-[4-(2,5-Dichlorophenoxy)piperidin-1-yl]pyridazin-3-yl}ethynyl]phenol], 96%. For the compound `CC(=O)Oc1ccccc1C#Cc1ccc(N2CCN(C(=O)c3ccccc3C(F)(F)F)CC2)nc1` [Example 29], the inhibition at 10 µM was 24%.

For the compound `O=C(c1cc(Cl)ccc1Cl)N1CCN(c2ccc(C#CCO)cn2)CC1` [Example 2, 4-[5-(3-Hydroxy-1-propynyl)-2-pyridyl]piperazino-2,5-dichlorophenylmethanone], the inhibition at 10 µM was determined as 57%.

Take `CCOC(=O)COc1cccc(C#Cc2ccc(N3CCN(C(=O)c4ccccc4C(F)(F)F)CC3)nc2)c1` [Example 26, Ethyl-2-[3-(2-{6-[4-(2-trifluoromethylbenzoyl)piperazino]-3-pyridyl}-1-ethynyl)-phenoxy]acetate]: the inhibition at 10 µM came to 27%. Turning to `CC(=O)Oc1ccc(C#Cc2ccc(N3CCC(Nc4ccccc4F)CC3)nn2)cc1` [Example 101], the inhibition at 10 µM was 82%. Regarding `Cc1cccc(C#Cc2cnc(N3CCC(Oc4ccccc4F)CC3)nc2)c1` [Example 97], the inhibition at 10 µM worked out at 36%. Consider `[O-][n+]1cccc(C#Cc2ccc(N3CCC(Oc4ccccc4F)CC3)nn2)c1` [Example 95], for which the inhibition at 10 µM stood at 24%. As for `O=C(Oc1ccc(C#Cc2ccc(N3CCC(Oc4ccccc4F)CC3)nn2)cc1)c1ccco1` [Example 80, 4-{6-[4-(2-Fluorophenoxy)piperidin-1-yl]pyridazin-3-yl}ethynylphenyl-2-furoate], the figure is 86%; as for `O=C(c1ccccc1C(F)(F)F)N1CCN(c2ncc(C#Cc3ccc(-n4cccc4)cc3)cn2)CC1` [Example 52], 39%. Next, `Fc1ccccc1OC1CCN(c2ccc(C#Cc3ccc4c(c3)OCO4)cn2)CC1` [Example 72]: 38%.

On to `O=C(c1ccccc1C(F)(F)F)N1CCN(c2ccc(C#CC(O)c3ccccc3)cn2)CC1` (centres unmarked) [Example 8, 4-[5-(3-Hydroxy-3-phenyl-1-propynyl}-2-pyridyl}piperazino-2-trifluoromethylphenyl-methanone], for which the inhibition at 10 µM stood at 42%. As for `O=C(c1ccccc1C(F)(F)F)N1CCN(c2ccc(C#Cc3ccccc3)cn2)CC1` [Example 20, 4-[5-(2-Phenyl-1-ethynyl)-2-pyridyl]piperazino-2-trifluoromethylphenylmethanone], the inhibition at 10 µM worked out at 38%. On to `O=C(c1ccccc1C(F)(F)F)N1CCN(c2ccc(C#Cc3ccc(O)cc3)cn2)CC1` [Example 23, 4-{5-[2-(4-Hydroxyphenyl)-1-ethynyl]-2-pyridyl}piperazino-2-trifluoromethylphenyl methanone], for which the inhibition at 10 µM came out at 91%. Next, `CCC(O)C#Cc1ccc(N2CCN(C(=O)c3ccccc3C(F)(F)F)CC2)nc1` (centres unmarked) [Example 6, 4-[5-(3-Hydroxy-1-pentynyl)-2-pyridyl]piperazino-2-trifluoromethylphenylmethanone]: 24%.

On to `O=C(c1cc(Cl)ccc1Cl)N1CCN(c2ccc(C#Cc3ccccc3)cn2)CC1` [Example 21, 2,5-Dichlorophenyl-4-[5-(2-phenyl-1-ethynyl)-2-pyridyl]piperazinomethanone], for which the inhibition at 10 µM was determined as 40%. Regarding `CC(=O)Oc1ccc(C#Cc2ccc(NCCOc3ccccc3F)nn2)cc1` [Example 99], the inhibition at 10 µM stood at 55%.

In the case of `CC(C)(C)c1ccc(OCC#Cc2ccc(N3CCN(C(=O)c4ccccc4C(F)(F)F)CC3)nc2)cc1` [Example 10], the inhibition at 10 µM turned out to be 37%.

Turning to `O=C(c1ccccc1C(F)(F)F)N1CCN(c2ccc(C#CCOc3ccc(O)cc3)cn2)CC1` [Example 13], the inhibition at 10 µM was 92%. Take `Oc1cccc(C#Cc2ccc(N3CCN(Cc4ccccc4F)CC3)nn2)c1` [Example 60, 3-({6-[4-(2-Fluorobenzyl)piperazin-1-yl]pyridazin-3-yl}ethynyl)phenol]: the inhibition at 10 µM is 95%. Next, `CC(=O)Oc1cccc(C#Cc2ccc(N3CCC(Oc4ccccc4F)CC3)nn2)c1` [Example 85]: 97%; `CC(=O)Oc1ccc(C#Cc2cnc(N3CCN(C(=O)c4ccccc4C(F)(F)F)CC3)s2)cc1` [Example 53, 4-(2-{2-[4-(2-Trifluoromethylbenzoyl)piperazino]-1,3-thiazol-5-yl}-1-ethynyl)phenyl acetate]: 47%. As for `CC(=O)Oc1ccc(C#Cc2ccc(N3CCC(Oc4ccccc4F)C3)nn2)cc1` (stereo in doubt) [Example 70, 4-[{6-[(3S)-3-(2-Fluorophenoxy)azolan-1-yl]pyridazin-3-yl}ethynyl]phenyl acetate], the figure is 96%; as for `O=C(c1ccccc1C(F)(F)F)N1CCN(c2ccc(C#Cc3ccc(O)cc3)nn2)CC1` [Example 37], 89%; as for `O=C(c1ccccc1C(F)(F)F)N1CCN(c2ccc(C#CCO)cn2)CC1` [Example 1, 4-[5-(3-Hydroxy-1-propynyl)-2-pyridyl]piperazino-2-trifluoromethylphenylmethanone], 36%.

Take `COc1cc(C#Cc2ccc(N3CCC(Oc4ccccc4F)CC3)nn2)ccc1O` [Example 83, 2-Methoxy-4-{6-[4-(2-fluorophenoxy)piperidin-1-yl]pyridazin-3-yl}ethynylphenol]: the inhibition at 10 µM came to 93%.

Turning to `O=C(c1ccccc1C(F)(F)F)N1CCN(c2ccc(C#CC(O)C34CC5CC(CC(C5)C3)C4)cn2)CC1` (centres unmarked) [Example 7, 4-[5-{3-Hydroxy-3-(1-adamantyl)-1-propynyl}-2-pyridyl]piperazino-2-trifluoromethyl-phenylmethanone], the inhibition at 10 µM was 0.35%. On to `CC(=O)NCC#Cc1ccc(N2CCN(C(=O)c3ccccc3C(F)(F)F)CC2)nc1` [Example 15, N1-(3-{6-[4-(2-Trifluoromethylbenzoyl)piperazino]-3-pyridyl}-2-propynyl)acetamide], for which the inhibition at 10 µM stood at 49%. Turning to `O=C(c1ccccc1C(F)(F)F)N1CCN(c2ccc(C#Cc3cccc(O)c3)cn2)CC1` [Example 25, 4-{5-[2-(3-Hydroxyphenyl)-1-ethynyl]-2-pyridyl}piperazino-2-trifluoromethylphenyl methanone], the inhibition at 10 µM was 97%.

With `CC(=O)Oc1ccc(C#Cc2ccc(N3CCC(O)(Cc4cc(Cl)ccc4Cl)CC3)nn2)cc1` [Example 64], the inhibition at 10 µM is 87%. As for `Fc1ccccc1OC1CCN(c2ccc(C#Cc3cccnc3)cn2)CC1` [Example 73, 4-(2-Fluorophenoxy)-1-{5-[2-(3-pyridyl)-1-ethynyl]-2-pyridyl}piperidine], the figure is 37%. Next, `CC(C)CCn1ccnc1C#Cc1ccc(N2CCN(C(=O)c3ccccc3C(F)(F)F)CC2)nc1` [Example 48]: 22%. As for `CCOC(=O)c1ccc(C#Cc2ccc(N3CCN(C(=O)c4ccccc4C(F)(F)F)CC3)nc2)nc1` [Example 44], the inhibition at 10 µM worked out at 37%. As for `N#Cc1cccc(C#Cc2ccc(N3CCN(C(=O)C4CCCC4)CC3)nn2)c1` [Example 54, 3-({6-[4-(Cyclopentylcarbonyl)piperazin-1-yl]pyridazin-3-yl}ethynyl)benzonitrile], the figure is 47%; as for `CC(=O)Oc1ccc(C#Cc2ccc(N3CCC(Oc4ccccc4F)CC3)nn2)cc1` [Example 75, 4-[{6-[4-(2-Fluorophenoxy)piperidin-1-yl]pyridazin-3-yl}ethynyl]phenyl acetate], 88%. For the compound `COc1ccc(C#Cc2ccc(N3CCN(C(=O)c4ccccc4C(F)(F)F)CC3)nc2)cc1` [Example 30, 4-{5-[2-(4-Methoxyphenyl)-1-ethynyl]-2-pyridyl}piperazino-2-trifluoromethylphenyl methanone], the inhibition at 10 µM was 26%.

The values are drawn from patent US20080182851A1, “ACETYLENE DERIVATIVES AS STEAROYL COA DESATURASE INHIBITORS” (Glenmark Pharmaceuticals S.A., priority 2006, published 2008).
